Measured values reported in ChEMBL document CHEMBL1933046, “Synthesis and antibacterial activity of a novel series of acylides active against community acquired respiratory pathogens” (2012).
Values after ≈ are worked out from the molar mass of the structure shown.

Experiments:
Format in all cases: functional
[1] = system: Streptococcus pneumoniae; assay: Antibacterial activity against Streptococcus pneumoniae 49619 by NCCLS method
[2] = system: Moraxella catarrhalis; assay: Antibacterial activity against Moraxella catarrhalis 8176 by NCCLS method
[3] = system: Haemophilus influenzae; assay: Antibacterial activity against Haemophilus influenzae 38 by NCCLS method
[4] = system: Streptococcus pneumoniae; assay: Antibacterial activity against Streptococcus pneumoniae 3579 expressing erm gene by NCCLS method
[5] = system: Streptococcus pneumoniae; assay: Antibacterial activity against Streptococcus pneumoniae 994 expressing mef gene by NCCLS method
[6] = system: Streptococcus pyogenes; assay: Antibacterial activity against Streptococcus pyogenes 19615 by NCCLS method
[7] = system: Streptococcus pneumoniae; assay: Antibacterial activity against Streptococcus pneumoniae 6303 by NCCLS method

Row | MIC [1] | MIC [2] | MIC [3] | MIC [4] | MIC [5] | MIC [6] | MIC [7] | SMILES
1 | 0.015 µg/mL (≈ 0.0158 µM) | 0.25 µg/mL (≈ 0.264 µM) | 1 µg/mL (≈ 1.06 µM) | 1 µg/mL (≈ 1.06 µM) | 0.06 µg/mL (≈ 0.0633 µM) | 0.06 µg/mL (≈ 0.0633 µM) | 0.06 µg/mL (≈ 0.0633 µM) | CC[C@H]1OC(=O)[C@H](C)[C@@H](OC(=O)Cc2ccccn2)[C@H](C)[C@@H](O[C@@H]2O[C@H](C)C[C@H](N(C)CC)[C@H]2O)[C@](C)(OC)C[C@@H](C)C(=O)[C@H](C)[C@H]2N(CCCCn3cnc(-c4cccnc4)c3)C(=O)O[C@]12C
2 | 0.015 µg/mL (≈ 0.0158 µM) | 0.125 µg/mL (≈ 0.132 µM) | 0.25 µg/mL (≈ 0.264 µM) | 0.125 µg/mL (≈ 0.132 µM) | 0.125 µg/mL (≈ 0.132 µM) | 0.06 µg/mL (≈ 0.0633 µM) | 0.06 µg/mL (≈ 0.0633 µM) | C=CCN(C)[C@H]1C[C@@H](C)O[C@@H](O[C@@H]2[C@@H](C)[C@H](OC(=O)Cc3ccccn3)[C@@H](C)C(=O)O[C@H](CC)[C@@]3(C)OC(=O)N(CCCCn4cnc(-c5ccoc5)c4)[C@@H]3[C@@H](C)C(=O)[C@H](C)C[C@@]2(C)OC)[C@@H]1O
3 | 0.06 µg/mL (≈ 0.0624 µM) | 0.25 µg/mL (≈ 0.26 µM) | 0.125 µg/mL (≈ 0.13 µM) | 0.25 µg/mL (≈ 0.26 µM) | 0.125 µg/mL (≈ 0.13 µM) | 0.06 µg/mL (≈ 0.0624 µM) | 0.06 µg/mL (≈ 0.0624 µM) | CC[C@H]1OC(=O)[C@H](C)[C@@H](OC(=O)Cc2ccccn2)[C@H](C)[C@@H](O[C@@H]2O[C@H](C)C[C@H](N(C)CC)[C@H]2O)[C@](C)(OC)C[C@@H](C)C(=O)[C@H](C)[C@H]2N(CCCCn3cnc(-c4ccc(N)nc4)c3)C(=O)O[C@]12C
4 | 0.06 µg/mL (≈ 0.0642 µM) | 0.125 µg/mL (≈ 0.134 µM) | < 0.06 µg/mL | 0.25 µg/mL (≈ 0.268 µM) | 0.125 µg/mL (≈ 0.134 µM) | 0.06 µg/mL (≈ 0.0642 µM) | 0.06 µg/mL (≈ 0.0642 µM) | C=CCN(C)[C@H]1C[C@@H](C)O[C@@H](O[C@@H]2[C@@H](C)[C@H](OC(=O)Cc3ccccn3)[C@@H](C)C(=O)O[C@H](CC)[C@@]3(C)OC(=O)N(CCCCn4cnc5cncnc54)[C@@H]3[C@@H](C)C(=O)[C@H](C)C[C@@]2(C)OC)[C@@H]1O
5 | 0.03 µg/mL (≈ 0.0312 µM) | 0.125 µg/mL (≈ 0.13 µM) | < 0.06 µg/mL | 0.25 µg/mL (≈ 0.26 µM) | 0.06 µg/mL (≈ 0.0625 µM) | 0.03 µg/mL (≈ 0.0312 µM) | 0.03 µg/mL (≈ 0.0312 µM) | C=CCN(C)[C@H]1C[C@@H](C)O[C@@H](O[C@@H]2[C@@H](C)[C@H](OC(=O)Cc3ccccn3)[C@@H](C)C(=O)O[C@H](CC)[C@@]3(C)OC(=O)N(CCCCn4cnc(-c5cncnc5)c4)[C@@H]3[C@@H](C)C(=O)[C@H](C)C[C@@]2(C)OC)[C@@H]1O
6 | 0.03 µg/mL (≈ 0.0326 µM) | 0.25 µg/mL (≈ 0.271 µM) | < 0.03 µg/mL | 2 µg/mL (≈ 2.17 µM) | 0.25 µg/mL (≈ 0.271 µM) | 0.03 µg/mL (≈ 0.0326 µM) | 0.06 µg/mL (≈ 0.0651 µM) | CC[C@H]1OC(=O)[C@H](C)[C@@H](OC(=O)Cc2cccnc2)[C@H](C)[C@@H](O[C@@H]2O[C@H](C)C[C@H](N(C)CC)[C@H]2O)[C@](C)(OC)C[C@@H](C)C(=O)[C@H](C)[C@H]2N(CCCCn3cnc4ncccc43)C(=O)O[C@]12C
7 | 0.125 µg/mL (≈ 0.128 µM) | 0.125 µg/mL (≈ 0.128 µM) | 0.125 µg/mL (≈ 0.128 µM) | 0.125 µg/mL (≈ 0.128 µM) | 0.06 µg/mL (≈ 0.0616 µM) | 0.06 µg/mL (≈ 0.0616 µM) | 0.06 µg/mL (≈ 0.0616 µM) | C=CCN(C)[C@H]1C[C@@H](C)O[C@@H](O[C@@H]2[C@@H](C)[C@H](OC(=O)Cc3cccnc3)[C@@H](C)C(=O)O[C@H](CC)[C@@]3(C)OC(=O)N(CCCCn4cnc(-c5ccc(N)nc5)c4)[C@@H]3[C@@H](C)C(=O)[C@H](C)C[C@@]2(C)OC)[C@@H]1O
8 | 0.06 µg/mL (≈ 0.0624 µM) | 0.125 µg/mL (≈ 0.13 µM) | 0.125 µg/mL (≈ 0.13 µM) | 0.25 µg/mL (≈ 0.26 µM) | 0.125 µg/mL (≈ 0.13 µM) | 0.03 µg/mL (≈ 0.0312 µM) | 0.06 µg/mL (≈ 0.0624 µM) | CC[C@H]1OC(=O)[C@H](C)[C@@H](OC(=O)Cc2cccnc2)[C@H](C)[C@@H](O[C@@H]2O[C@H](C)C[C@H](N(C)CC)[C@H]2O)[C@](C)(OC)C[C@@H](C)C(=O)[C@H](C)[C@H]2N(CCCCn3cnc(-c4ccc(N)nc4)c3)C(=O)O[C@]12C

Row | SMILES | MIC [1] | MIC [2] | MIC [3] | MIC [4] | MIC [5] | MIC [6] | MIC [7]
9 | CC[C@H]1OC(=O)[C@H](C)[C@@H](O[C@H]2C[C@@](C)(OC)[C@@H](O)[C@H](C)O2)[C@H](C)[C@@H](O[C@@H]2O[C@H](C)C[C@H](N(C)C)[C@H]2O)[C@](C)(O)C[C@@H](C)CN(C)[C@H](C)[C@@H](O)[C@]1(C)O [AZITHROMYCIN] | 0.25 µg/mL (≈ 0.334 µM) | 16 µg/mL (≈ 21.4 µM) | > 16 µg/mL | 16 µg/mL (≈ 21.4 µM) | 1 µg/mL (≈ 1.34 µM) | 0.25 µg/mL (≈ 0.334 µM) | 0.25 µg/mL (≈ 0.334 µM)
